Results on seven molecules are retold here after ChEMBL document CHEMBL1201862, “PubChem BioAssay data set” (2004).

Assay [1] can be described thus: cells. In kind it is functional, cell-based.
Assay [2] deals with T1, Serine/threonine-protein phosphatase (Candida dubliniensis (strain CD36 / CBS 7987 / NCPF 3949 / NRRLY-17841) (Yeast), UniProt B9W6M3).
T1 sequence (B9W6M3 whole entry): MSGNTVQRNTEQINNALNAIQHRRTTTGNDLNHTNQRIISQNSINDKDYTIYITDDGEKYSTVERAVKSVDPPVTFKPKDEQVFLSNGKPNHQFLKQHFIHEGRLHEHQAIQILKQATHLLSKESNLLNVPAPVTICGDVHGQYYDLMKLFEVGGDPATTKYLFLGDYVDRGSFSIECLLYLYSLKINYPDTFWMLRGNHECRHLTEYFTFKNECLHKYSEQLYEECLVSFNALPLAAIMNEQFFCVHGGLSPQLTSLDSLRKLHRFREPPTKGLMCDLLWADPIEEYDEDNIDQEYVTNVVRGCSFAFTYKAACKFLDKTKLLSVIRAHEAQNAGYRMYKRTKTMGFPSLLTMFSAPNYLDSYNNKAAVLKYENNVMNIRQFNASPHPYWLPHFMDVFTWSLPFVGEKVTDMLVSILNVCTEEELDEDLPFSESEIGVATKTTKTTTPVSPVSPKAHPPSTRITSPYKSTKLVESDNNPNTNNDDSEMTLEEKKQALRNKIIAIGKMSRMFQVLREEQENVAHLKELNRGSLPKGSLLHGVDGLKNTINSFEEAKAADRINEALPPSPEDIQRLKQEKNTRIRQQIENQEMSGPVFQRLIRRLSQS
As to the kind of experiment: blockers of CaCl2-induced CDRE-lacZ signaling – S. cerevisiae, luminescence, secondary, dose response (AID 2388).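 Also: yeast reporter cells carrying a calcineurin-responsive lacZ construct stimulated with calcium chloride; luminescent beta-galactosidase reporter signal in whole cells rather than isolated phosphatase activity; potency for inhibition where a drop in reporter signal means calcineurin blockade.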 In kind it is functional, cell-based.

Assay [3] has as its target T2, Coagulation factor XII (Homo sapiens, UniProt P00748).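 Also: activated factor XIIa alpha cleaving a fluorogenic AMC peptide substrate; inhibitor potency from loss of enzyme activity.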
T2 sequence (P00748 whole entry): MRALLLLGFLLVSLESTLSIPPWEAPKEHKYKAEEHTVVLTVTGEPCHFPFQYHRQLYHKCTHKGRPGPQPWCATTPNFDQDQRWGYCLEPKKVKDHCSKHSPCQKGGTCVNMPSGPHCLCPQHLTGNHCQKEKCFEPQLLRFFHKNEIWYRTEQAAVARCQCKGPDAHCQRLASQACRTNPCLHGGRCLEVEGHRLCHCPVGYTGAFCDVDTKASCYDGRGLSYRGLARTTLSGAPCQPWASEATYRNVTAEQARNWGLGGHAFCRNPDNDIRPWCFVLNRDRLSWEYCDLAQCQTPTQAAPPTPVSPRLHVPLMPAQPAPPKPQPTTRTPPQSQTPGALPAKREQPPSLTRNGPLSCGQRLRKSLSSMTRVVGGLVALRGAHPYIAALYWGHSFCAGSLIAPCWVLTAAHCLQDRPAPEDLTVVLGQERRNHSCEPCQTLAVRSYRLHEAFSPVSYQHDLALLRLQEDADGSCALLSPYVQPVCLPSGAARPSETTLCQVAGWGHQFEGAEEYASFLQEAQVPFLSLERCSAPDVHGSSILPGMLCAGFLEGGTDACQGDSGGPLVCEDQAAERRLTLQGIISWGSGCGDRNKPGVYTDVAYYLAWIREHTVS
Format: functional.

Assay [4] is described as follows: cells. Format: functional, cell-based. This is another data set of the same source.
A short description of assay [5]: NIH-3T3 fibroblast cytotoxicity, dose response, cytotoxicity control, cell-based, fluorescence, Alamar Blue, secondary assay (AID 2327).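 Also: NIH-3T3 mouse fibroblasts cultured with fluconazole at 8 µg/mL.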 Format: functional.
The target of assay [6] is T3, Mannose-6-phosphate isomerase (Homo sapiens, UniProt P34949).
T3 sequence (P34949 whole entry): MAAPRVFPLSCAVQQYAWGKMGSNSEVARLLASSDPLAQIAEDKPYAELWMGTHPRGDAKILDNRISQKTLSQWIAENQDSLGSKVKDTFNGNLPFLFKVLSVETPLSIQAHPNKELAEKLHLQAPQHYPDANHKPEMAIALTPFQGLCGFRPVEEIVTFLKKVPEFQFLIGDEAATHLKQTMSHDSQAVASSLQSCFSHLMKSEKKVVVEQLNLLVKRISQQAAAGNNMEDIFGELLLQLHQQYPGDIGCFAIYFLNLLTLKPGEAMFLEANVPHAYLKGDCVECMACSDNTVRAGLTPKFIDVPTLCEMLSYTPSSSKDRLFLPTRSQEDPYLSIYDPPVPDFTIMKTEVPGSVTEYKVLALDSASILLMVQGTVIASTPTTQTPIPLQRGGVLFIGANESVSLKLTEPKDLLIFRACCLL
As to the kind of experiment: MPI inhibition at elevated mannose 6-phosphate – biochemical, fluorescence intensity, high mannose 6-phosphate, primary screen (AID 1220).

The target of assay [7] is T3, Mannose-6-phosphate isomerase. As to the kind of experiment: MPI enzyme activity inhibition – biochemical, fluorescence intensity, coupled assay, primary screen (AID 1209).
Assay [8] concerns the target ATP-dependent molecular chaperone HSP82 (Candida albicans (strain WO-1) (Yeast), UniProt C4YTQ8). As to the kind of experiment: steroid-induced GRE reporter decrease in yeast – S. cerevisiae, luminescence, Hsp90 inhibitor project, dose response (AID 2400).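 Also: beta-galactosidase luminescence from glucocorticoid response element reporter as proxy for Hsp90 function; inhibitor potency where signal loss means Hsp90 inhibition.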 Format: functional, cell-based.
Assay [9] is described as follows: mitochondrial function rescue without frataxin homolog – Friedreich's ataxia, plus single-dose screen, dose response (AID 1465).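 Also: yeast depleted of Yfh1p frataxin homolog grown on glycerol needing respiration; WST-1 tetrazolium dye reduction as measure of cellular dehydrogenase metabolic activity.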 Format: functional.
For assay [10], the target named is Induced myeloid leukemia cell differentiation protein Mcl-1 (Homo sapiens, UniProt Q07820). Format: functional.
Assay [11] is described as follows: fluconazole-exposed Candida albicans growth modulators – fluorescence, retest, confirmation (AID 2467). Format: functional, cell-based.
The target of assay [12] is Aspartyl aminopeptidase (Plasmodium falciparum 3D7, UniProt Q8I2J3).
The target of assay [13] is Large T antigen (Simian virus 40, UniProt P03070). Format: functional, Betapolyomavirus macacae.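 Also: Confirmatory-stage PubChem screen for compounds that inhibit SV40 T antigen.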
In assay [14] the target is Procathepsin L (Homo sapiens, UniProt P07711).
A short description of assay [15]: A Cell Based Assay for the Identification of Probe candidate Compounds with Anti- Venezuelan Equine Encephalitis virus. [Related pubchem assays: 2409, 2419, 1621, 2238, 2405, 2024, 2065, 2402, 2414, 1635, 1650, 2244 ]. In kind it is functional.
Assay [16] relates to Vero. As to the kind of experiment: Vero cell viability after compound exposure – synthesized analogs, set II, cytotoxicity control for West Nile virus antiviral project, SAR follow-up (AID 2402). In kind it is functional. As to conditions: Chlorocebus sabaeus.
Assay [17] deals with T4, Mucolipin-3 (Homo sapiens, UniProt Q8TDD5).
T4 sequence (Q8TDD5 whole entry): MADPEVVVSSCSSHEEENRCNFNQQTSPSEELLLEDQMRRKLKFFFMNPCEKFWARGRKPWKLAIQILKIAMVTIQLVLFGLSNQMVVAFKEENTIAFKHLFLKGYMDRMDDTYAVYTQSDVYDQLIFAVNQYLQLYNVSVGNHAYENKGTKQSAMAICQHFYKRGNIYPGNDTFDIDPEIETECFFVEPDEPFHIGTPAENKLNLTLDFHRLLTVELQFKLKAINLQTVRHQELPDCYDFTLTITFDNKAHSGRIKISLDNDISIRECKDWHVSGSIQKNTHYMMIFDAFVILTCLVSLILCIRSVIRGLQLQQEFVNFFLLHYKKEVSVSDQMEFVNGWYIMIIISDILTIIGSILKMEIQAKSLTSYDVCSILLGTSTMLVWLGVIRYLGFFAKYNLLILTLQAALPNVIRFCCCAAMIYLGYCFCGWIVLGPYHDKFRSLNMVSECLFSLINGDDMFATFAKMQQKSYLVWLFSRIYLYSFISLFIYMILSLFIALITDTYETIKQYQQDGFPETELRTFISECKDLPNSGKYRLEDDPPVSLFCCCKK
As to the kind of experiment: Dose response cell-based high-throughput screening assay for agonists of the transient receptor potential channel ML3 (TRPML3). [Related pubchem assays: 1526, 1424, 1448 ]. Format: functional.

Assay [18] deals with T4, Mucolipin-3. As to the kind of experiment: activators of mucolipin-3 and mucolipin-2 – cell-based, patch clamp, Fura-2 profiling panel, panel member TRPML3 Dose Response (AID 2116).
Assay [19] concerns the target T5, Ion channel NompC (Danio rerio, UniProt Q7T1G6). As to the kind of experiment: activators of mucolipin-3 and mucolipin-2 – cell-based, […], Fura-2 profiling panel, panel member TRPN1 Dose Response (AID 2116).
Assay [20] has as its target T5, Ion channel NompC. As to the kind of experiment: Fluorescence counterscreen assay for TRPML3 agonists: dose response cell-based high-throughput screening assay to identify agonists of the transient receptor potential channel N1 (TRPN1). [Related pubchem assays: 1526, 1424, 1448 ]. Format: functional.
The target in assay [21] is Insulin-degrading enzyme (Homo sapiens, UniProt P14735). As to the kind of experiment: Dose Response: Fluorescence polarization-based cell-based high throughput dose response assay for inhibitors of insulin-degrading enzyme (IDE). [Related pubchem assays: 434962 (Primary screen (IDE inhibitors in singlicate)), 449730 (Counterscreen (Cytotoxicity in triplicate)), 435028 (Confirmation (IDE inhibitors in triplicate)), 434984 (Summary …. In kind it is functional.

Assay [22] concerns the target T6, Leucine aminopeptidase (Plasmodium falciparum 3D7, UniProt Q8IL11).
T6 sequence (Q8IL11 whole entry): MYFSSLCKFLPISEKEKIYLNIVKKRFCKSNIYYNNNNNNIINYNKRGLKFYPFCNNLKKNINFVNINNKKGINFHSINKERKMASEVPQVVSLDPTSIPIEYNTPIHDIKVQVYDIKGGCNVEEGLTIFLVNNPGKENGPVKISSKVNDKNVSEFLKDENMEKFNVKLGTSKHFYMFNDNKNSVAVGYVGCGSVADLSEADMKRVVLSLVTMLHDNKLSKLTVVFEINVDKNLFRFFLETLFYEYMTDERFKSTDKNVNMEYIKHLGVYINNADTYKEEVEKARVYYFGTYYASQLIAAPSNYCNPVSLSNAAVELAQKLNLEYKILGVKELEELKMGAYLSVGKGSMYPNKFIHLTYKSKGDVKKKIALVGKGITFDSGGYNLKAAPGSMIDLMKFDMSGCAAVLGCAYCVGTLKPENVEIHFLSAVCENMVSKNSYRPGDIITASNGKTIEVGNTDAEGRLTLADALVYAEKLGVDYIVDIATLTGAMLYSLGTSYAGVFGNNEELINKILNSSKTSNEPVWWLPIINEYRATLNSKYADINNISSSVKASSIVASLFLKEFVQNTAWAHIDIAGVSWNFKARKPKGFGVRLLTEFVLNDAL
As to the kind of experiment: P. falciparum M17LAP inhibitors, primary screen, biochemical, fluorogenic H-Leu-NHMec substrate, 1536-well (AID 1619). In kind it is functional.

Assay [23] can be described thus: Counterscreen for IDE inhibitors: Luminescence-based cell-based high throughput dose response assay to identify compounds that are cytotoxic to HEK cells. [Related pubchem assays: 434962 (Primary screen (IDE inhibitors in singlicate)), 449730 (Counterscreen (Cytotoxicity in triplicate)), 435028 (Confirmation (IDE inhibitors in triplicate)) …. Format: functional. As to conditions: HEK293.

Assay [24] concerns Jurkat. As to the kind of experiment: blockers of NF-kB activation in T cells – Jurkat, luciferase reporter, luminescence, B- and T-cell, dose response (AID 489004).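 Also: NF-kB luciferase reporter Jurkat cells stimulated with PMA plus ionomycin.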 Format: functional, cell-based. As to conditions: Homo sapiens.
Assay [25] has as its target Wee1-like protein kinase (Homo sapiens, UniProt P30291). As to the kind of experiment: Dose Response Cell-based Assay for Inhibitors of Wee1 Degradation. [Related pubchem assays: 1410, 1321 ]. Format: functional.
Assay [26] has as its target Mitogen-activated protein kinase 10 (Homo sapiens, UniProt P53779). As to the kind of experiment: Dose response biochemical screening assay for inhibitors of c-Jun N-Terminal Kinase 3 (JNK3). [Related pubchem assays: 746 ].
Assay [27] in a line: HEK-293T viability loss, compound-treated – cell-based, uHTS hits, cytotoxicity control for B/T-cell NF-kB inhibitor project, dose response (AID 489019).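 Also: IC50 reflects cytotoxicity as loss of cell viability.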 In kind it is functional.
Assay [28] has as its target G2/mitotic-specific cyclin-B1 (Homo sapiens, UniProt P14635). As to the kind of experiment: Counterscreen assay for inhibitors of Wee1 degradation: dose response cell-based assay to identify inhibitors of cyclin B degradation. [Related pubchem assays: 1410, 1321 ]. Format: functional.
Assay [29] relates to HeLa. As to the kind of experiment: Cytotoxicity counterscreen assay for transcriptional activators of heat shock protein 70 (Hsp70). [Related pubchem assays: 1203, 1252 ]. In kind it is functional. As to conditions: Homo sapiens.

Active and inactive are the calls of the source.

T5 sequence (Q7T1G6 whole entry): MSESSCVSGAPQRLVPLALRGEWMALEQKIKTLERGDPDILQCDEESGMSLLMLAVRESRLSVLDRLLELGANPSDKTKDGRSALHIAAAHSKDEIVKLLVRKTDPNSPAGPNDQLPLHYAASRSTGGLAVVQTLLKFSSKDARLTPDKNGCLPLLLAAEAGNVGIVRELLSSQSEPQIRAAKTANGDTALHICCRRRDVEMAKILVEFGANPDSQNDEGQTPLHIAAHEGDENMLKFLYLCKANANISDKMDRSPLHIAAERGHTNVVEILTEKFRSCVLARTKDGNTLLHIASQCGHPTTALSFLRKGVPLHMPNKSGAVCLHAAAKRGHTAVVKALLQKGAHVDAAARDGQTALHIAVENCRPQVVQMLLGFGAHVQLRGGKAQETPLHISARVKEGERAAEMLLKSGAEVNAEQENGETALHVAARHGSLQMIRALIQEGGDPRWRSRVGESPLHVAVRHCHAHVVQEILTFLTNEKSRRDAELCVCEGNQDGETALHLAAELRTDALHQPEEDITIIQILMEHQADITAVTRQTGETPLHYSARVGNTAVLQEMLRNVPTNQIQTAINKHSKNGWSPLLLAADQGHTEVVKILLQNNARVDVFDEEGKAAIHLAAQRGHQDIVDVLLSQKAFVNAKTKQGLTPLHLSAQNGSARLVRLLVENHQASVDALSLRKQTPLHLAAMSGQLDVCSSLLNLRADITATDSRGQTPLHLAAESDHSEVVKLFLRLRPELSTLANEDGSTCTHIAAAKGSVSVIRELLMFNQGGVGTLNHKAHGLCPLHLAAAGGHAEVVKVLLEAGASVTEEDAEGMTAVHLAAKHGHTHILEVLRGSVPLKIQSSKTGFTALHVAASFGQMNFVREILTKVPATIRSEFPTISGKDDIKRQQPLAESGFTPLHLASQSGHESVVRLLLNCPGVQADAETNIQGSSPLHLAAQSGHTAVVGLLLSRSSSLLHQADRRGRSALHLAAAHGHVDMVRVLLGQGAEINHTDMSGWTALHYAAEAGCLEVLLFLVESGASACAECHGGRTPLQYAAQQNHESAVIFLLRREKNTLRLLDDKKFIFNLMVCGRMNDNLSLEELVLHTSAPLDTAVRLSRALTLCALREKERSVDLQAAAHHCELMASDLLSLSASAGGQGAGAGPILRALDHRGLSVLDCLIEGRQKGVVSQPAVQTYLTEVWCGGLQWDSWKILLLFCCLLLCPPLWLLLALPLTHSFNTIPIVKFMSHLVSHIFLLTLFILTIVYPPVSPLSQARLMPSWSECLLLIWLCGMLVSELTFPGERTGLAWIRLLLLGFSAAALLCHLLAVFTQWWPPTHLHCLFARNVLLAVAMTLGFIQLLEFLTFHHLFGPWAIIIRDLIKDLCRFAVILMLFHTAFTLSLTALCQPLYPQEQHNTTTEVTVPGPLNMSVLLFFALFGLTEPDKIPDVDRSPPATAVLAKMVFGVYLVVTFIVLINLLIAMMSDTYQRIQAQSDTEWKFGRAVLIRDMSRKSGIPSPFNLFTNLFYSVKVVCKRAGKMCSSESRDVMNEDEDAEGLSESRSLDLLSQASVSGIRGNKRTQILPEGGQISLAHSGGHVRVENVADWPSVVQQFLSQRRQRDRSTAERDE
Sequence of Insulin-degrading enzyme (P14735 whole entry): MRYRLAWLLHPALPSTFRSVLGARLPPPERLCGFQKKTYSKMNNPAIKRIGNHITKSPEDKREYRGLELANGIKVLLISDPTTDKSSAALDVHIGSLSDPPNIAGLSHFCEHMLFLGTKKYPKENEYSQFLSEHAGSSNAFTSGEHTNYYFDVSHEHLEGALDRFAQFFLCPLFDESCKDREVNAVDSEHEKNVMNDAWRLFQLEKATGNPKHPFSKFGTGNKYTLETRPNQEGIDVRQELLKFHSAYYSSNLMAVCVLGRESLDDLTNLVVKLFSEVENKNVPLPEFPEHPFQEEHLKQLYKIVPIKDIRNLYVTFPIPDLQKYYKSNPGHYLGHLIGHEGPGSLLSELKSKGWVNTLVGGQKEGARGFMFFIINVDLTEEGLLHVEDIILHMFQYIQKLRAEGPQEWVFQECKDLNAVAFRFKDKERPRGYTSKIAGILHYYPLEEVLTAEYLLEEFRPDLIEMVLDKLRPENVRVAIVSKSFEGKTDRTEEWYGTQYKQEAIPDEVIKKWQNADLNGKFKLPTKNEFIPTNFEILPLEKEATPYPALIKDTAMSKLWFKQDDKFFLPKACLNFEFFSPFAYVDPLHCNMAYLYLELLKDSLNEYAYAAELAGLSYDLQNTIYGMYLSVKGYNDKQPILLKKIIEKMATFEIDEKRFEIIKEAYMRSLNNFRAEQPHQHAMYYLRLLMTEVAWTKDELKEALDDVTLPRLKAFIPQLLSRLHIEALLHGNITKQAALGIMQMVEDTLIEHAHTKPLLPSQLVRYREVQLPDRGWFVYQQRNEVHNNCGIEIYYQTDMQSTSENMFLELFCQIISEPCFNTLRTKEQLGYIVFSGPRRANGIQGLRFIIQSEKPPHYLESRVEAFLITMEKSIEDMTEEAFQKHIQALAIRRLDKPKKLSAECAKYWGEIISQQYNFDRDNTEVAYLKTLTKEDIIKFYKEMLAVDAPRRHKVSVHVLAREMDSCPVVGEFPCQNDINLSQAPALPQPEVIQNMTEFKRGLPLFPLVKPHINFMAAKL
Sequence of Procathepsin L (P07711 whole entry): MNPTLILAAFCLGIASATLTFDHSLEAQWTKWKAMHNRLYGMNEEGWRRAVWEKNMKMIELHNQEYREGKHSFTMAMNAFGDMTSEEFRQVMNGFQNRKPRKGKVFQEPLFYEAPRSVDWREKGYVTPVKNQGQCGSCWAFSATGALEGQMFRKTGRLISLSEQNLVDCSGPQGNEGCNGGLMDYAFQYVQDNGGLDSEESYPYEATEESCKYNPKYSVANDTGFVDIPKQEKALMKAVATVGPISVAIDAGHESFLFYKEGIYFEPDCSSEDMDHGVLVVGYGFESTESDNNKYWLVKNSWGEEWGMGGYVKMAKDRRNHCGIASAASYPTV
Sequence of Aspartyl aminopeptidase (Q8I2J3 whole entry): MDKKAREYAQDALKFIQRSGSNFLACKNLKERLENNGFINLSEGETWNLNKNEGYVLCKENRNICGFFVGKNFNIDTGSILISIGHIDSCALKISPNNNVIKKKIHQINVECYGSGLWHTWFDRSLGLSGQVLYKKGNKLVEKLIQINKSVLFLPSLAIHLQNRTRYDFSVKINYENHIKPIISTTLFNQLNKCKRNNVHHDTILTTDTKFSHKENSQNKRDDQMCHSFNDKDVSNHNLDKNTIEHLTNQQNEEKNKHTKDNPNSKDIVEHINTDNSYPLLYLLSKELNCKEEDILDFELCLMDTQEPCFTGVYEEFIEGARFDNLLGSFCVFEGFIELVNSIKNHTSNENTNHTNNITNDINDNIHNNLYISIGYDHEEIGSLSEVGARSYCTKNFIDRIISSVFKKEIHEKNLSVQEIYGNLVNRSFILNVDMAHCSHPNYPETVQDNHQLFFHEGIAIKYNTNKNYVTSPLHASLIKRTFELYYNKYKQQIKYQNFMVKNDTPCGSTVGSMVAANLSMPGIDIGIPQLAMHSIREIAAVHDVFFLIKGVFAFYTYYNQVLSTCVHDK
Sequence of Mitogen-activated protein kinase 10 (P53779 whole entry): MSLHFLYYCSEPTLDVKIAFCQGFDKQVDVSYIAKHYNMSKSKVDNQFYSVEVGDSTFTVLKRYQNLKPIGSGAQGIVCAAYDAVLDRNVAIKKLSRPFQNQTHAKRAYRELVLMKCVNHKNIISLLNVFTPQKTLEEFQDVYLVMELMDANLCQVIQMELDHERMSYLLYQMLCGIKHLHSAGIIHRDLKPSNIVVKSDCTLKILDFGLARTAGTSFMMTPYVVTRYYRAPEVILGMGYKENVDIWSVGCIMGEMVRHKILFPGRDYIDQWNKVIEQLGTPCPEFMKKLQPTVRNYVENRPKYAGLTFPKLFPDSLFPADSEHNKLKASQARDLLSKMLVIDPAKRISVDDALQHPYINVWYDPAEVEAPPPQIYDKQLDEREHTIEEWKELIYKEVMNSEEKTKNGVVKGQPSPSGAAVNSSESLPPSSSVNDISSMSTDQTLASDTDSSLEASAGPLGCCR
Sequence of Wee1-like protein kinase (P30291 whole entry): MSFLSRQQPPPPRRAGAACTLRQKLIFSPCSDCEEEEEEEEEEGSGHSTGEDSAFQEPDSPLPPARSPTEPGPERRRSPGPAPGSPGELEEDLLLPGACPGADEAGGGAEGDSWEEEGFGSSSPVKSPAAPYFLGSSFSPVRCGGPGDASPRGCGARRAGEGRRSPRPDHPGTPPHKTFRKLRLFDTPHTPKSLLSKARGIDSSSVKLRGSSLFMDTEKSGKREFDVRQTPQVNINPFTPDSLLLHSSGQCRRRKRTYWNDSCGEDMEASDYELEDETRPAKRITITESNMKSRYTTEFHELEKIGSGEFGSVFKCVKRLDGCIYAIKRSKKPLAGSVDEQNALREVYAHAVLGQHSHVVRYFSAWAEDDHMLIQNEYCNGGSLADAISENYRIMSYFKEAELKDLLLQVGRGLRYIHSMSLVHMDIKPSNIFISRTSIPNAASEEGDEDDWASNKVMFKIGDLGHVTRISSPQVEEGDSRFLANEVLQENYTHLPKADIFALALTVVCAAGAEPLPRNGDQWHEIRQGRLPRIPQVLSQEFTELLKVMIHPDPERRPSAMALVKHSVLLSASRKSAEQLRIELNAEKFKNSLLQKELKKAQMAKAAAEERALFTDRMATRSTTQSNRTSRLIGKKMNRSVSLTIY
Sequence of Induced myeloid leukemia cell differentiation protein Mcl-1 (Q07820 whole entry): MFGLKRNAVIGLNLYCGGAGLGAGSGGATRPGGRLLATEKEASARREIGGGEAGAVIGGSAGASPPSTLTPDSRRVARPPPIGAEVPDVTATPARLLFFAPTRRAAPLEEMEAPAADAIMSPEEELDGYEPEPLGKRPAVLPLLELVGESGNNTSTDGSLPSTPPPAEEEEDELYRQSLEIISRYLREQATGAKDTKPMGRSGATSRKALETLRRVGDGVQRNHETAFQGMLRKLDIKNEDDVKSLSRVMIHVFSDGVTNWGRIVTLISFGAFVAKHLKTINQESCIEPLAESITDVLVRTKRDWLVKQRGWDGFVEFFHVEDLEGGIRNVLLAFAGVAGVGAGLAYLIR

For the molecule `O=C(N/N=C/c1ccc(O)c(O)c1O)/C(=C/c1ccc([N+](=O)[O-])cc1)NC(=O)c1ccccc1`, the EC50 was > 350 µM (not active) in assay [1]; > 180 µM (inactive) in [2]; > 350 µM (not active) in assay [4]; > 160 µM (inactive) in [5]; > 160 µM (inactive) in [8]; > 100 µM (active) in assay [9]. For the same molecule, in assay [11], the EC50 is 0.587 µM (active). Also, the IC50 was > 50 µM (inactive) in [3], > 50 µM (not active) in assay [6], > 50 µM (not active) in assay [7] and 19.3 µM (active) in assay [10].
Take `N/C(=N\N=C\c1ccc(O)cc1O)N[N+](=O)[O-]`: the IC50 in assay [12] was 4.61 µM (active); in assay [13], 8.78 µM (active); in assay [14] it was > 59.6 µM (not active).
In the case of `COc1ccc(Cn2nc(C)cc2OC(=O)c2ccccc2)cc1`, the IC50 in [15] is > 133 µM (active). Further, the CC50 in assay [16] is > 200 µM (active).
With `Cc1ccc(N2CCN(S(=O)(=O)N3CCCCC3)CC2)c(C)c1`, the EC50 is 1.43 µM (active) in [17], 2 µM (active) in [18], > 29.9 µM (inactive) in assay [19] and > 29.9 µM (not active) in assay [20].
Regarding `O=C(O)CC12CC3CC(C1)CC(n1ncc(NCc4ccc(F)cc4Cl)c(Cl)c1=O)(C3)C2`, the values for the 50% inhibitory concentration (IC50) in assay [21], in assay [22] and in assay [23] were 18.1 µM (not active), 32.1 µM (active) and > 55.7 µM (not active), respectively.
Consider `Cc1ccnc(NC(=O)CCCOc2cc(=O)n(C)c3ccccc23)c1`, for which the IC50 in [24] is 6.22 µM (active); in assay [26], 62.4 µM (not active); in assay [27], > 80 µM (inactive). Moreover, the EC50 in [25] was 7.87 µM (active); in [28], > 49.7 µM (not active).
Take `CN(Cc1ccco1)C(=O)Cn1nc(-c2ccc(Cl)cc2)ccc1=O`: the cytotoxic concentration (CC50) in assay [29] is listed as > 99 µM (not active).
